Experimental data published in PubChem BioAssay (NCI).
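Interpolation was linear, between the two tested concentrations surrounding the appropriate level; five concentrations were tested over 48 hours in 96-well plates. TGI marks complete inhibition of growth.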

Tests used:
Test in all cases: NCI-60 cell line screen, 48 h
MALME-3M melanoma = tested on: MALME-3M melanoma
UACC-62 melanoma = tested on: UACC-62 melanoma
TK-10 renal = tested on: TK-10 renal
NCI-H226 lung = tested on: NCI-H226 lung
MOLT-4 leukemia = tested on: MOLT-4 leukemia
OVCAR-5 ovarian = tested on: OVCAR-5 ovarian
COLO 205 colon = tested on: COLO 205 colon
NCI-H522 lung = tested on: NCI-H522 lung
KM12 colon = tested on: KM12 colon
OVCAR-8 ovarian = tested on: OVCAR-8 ovarian
EKVX NSCLC = tested on: EKVX NSCLC
SK-OV-3 ovarian = tested on: SK-OV-3 ovarian
T-47D breast = tested on: T-47D breast
A549 NSCLC = tested on: A549 NSCLC
SF-268 CNS = tested on: SF-268 CNS
MDA-MB-435 = tested on: MDA-MB-435
UACC-257 melanoma = tested on: UACC-257 melanoma
HCC-2998 colon = tested on: HCC-2998 colon
HCT-15 colon = tested on: HCT-15 colon
SN12C renal = tested on: SN12C renal
HS 578T breast = tested on: HS 578T breast
DU-145 prostate = tested on: DU-145 prostate
HCT-116 colon = tested on: HCT-116 colon
BT-549 breast = tested on: BT-549 breast
IGROV1 ovarian = tested on: IGROV1 ovarian
CCRF-CEM leukemia = tested on: CCRF-CEM leukemia
SK-MEL-28 melanoma = tested on: SK-MEL-28 melanoma
MDA-N = tested on: MDA-N
SNB-19 CNS = tested on: SNB-19 CNS
ACHN renal = tested on: ACHN renal
U251 CNS = tested on: U251 CNS
UO-31 renal = tested on: UO-31 renal
MDA-MB-231 breast = tested on: MDA-MB-231 breast
M14 melanoma = tested on: M14 melanoma
SF-295 CNS = tested on: SF-295 CNS
RXF 393 renal = tested on: RXF 393 renal
HL-60(TB) leukemia = tested on: HL-60(TB) leukemia
OVCAR-4 ovarian = tested on: OVCAR-4 ovarian
SK-MEL-2 melanoma = tested on: SK-MEL-2 melanoma
HOP-62 NSCLC = tested on: HOP-62 NSCLC
RPMI-8226 leukemia = tested on: RPMI-8226 leukemia
A498 renal = tested on: A498 renal
K-562 leukemia = tested on: K-562 leukemia
NCI-H23 lung = tested on: NCI-H23 lung
SK-MEL-5 melanoma = tested on: SK-MEL-5 melanoma
SW-620 colon = tested on: SW-620 colon
SF-539 CNS = tested on: SF-539 CNS
PC-3 prostate = tested on: PC-3 prostate
OVCAR-3 ovarian = tested on: OVCAR-3 ovarian
HOP-92 NSCLC = tested on: HOP-92 NSCLC
NCI-H460 lung = tested on: NCI-H460 lung
NCI/ADR-RES ovarian = tested on: NCI/ADR-RES ovarian
SNB-75 CNS = tested on: SNB-75 CNS
786-0 renal = tested on: 786-0 renal
SR leukemia = tested on: SR leukemia
HT29 colon = tested on: HT29 colon
CAKI-1 renal = tested on: CAKI-1 renal

## COc1ccc2nc3cc(Cl)ccc3c(NCCCN(C)CCCNc3ccc4ncn5c6ccccc6c(=O)c3c45)c2c1
MALME-3M melanoma
  TGI: 7.09 µM
UACC-62 melanoma
  TGI: 7.93 µM
TK-10 renal
  TGI: 1.76 µM
NCI-H226 lung
  TGI: 1.98 µM
MOLT-4 leukemia
  TGI: > 5.72 µM
OVCAR-5 ovarian
  TGI: 6.47 µM
COLO 205 colon
  TGI: 3.66 µM
NCI-H522 lung
  TGI: 1.73 µM
KM12 colon
  TGI: 4.99 µM
OVCAR-8 ovarian
  TGI: 8.52 µM
EKVX NSCLC
  TGI: 7.15 µM
SK-OV-3 ovarian
  TGI: 6.04 µM
T-47D breast
  TGI: > 17.3 µM
A549 NSCLC
  TGI: 1.55 µM
SF-268 CNS
  TGI: 12.6 µM
MDA-MB-435
  TGI: 5.23 µM
UACC-257 melanoma
  TGI: 6.81 µM
HCC-2998 colon
  TGI: 0.423 µM
HCT-15 colon
  TGI: > 9.4 µM
SN12C renal
  TGI: 5.28 µM
HS 578T breast
  TGI: > 19.5 µM
DU-145 prostate
  TGI: 7.19 µM
HCT-116 colon
  TGI: 4.86 µM
BT-549 breast
  TGI: 4.59 µM
IGROV1 ovarian
  TGI: 4.37 µM
CCRF-CEM leukemia
  TGI: > 25 µM
SK-MEL-28 melanoma
  TGI: 7.38 µM
MDA-N
  TGI: 4.77 µM
SNB-19 CNS
  TGI: 5.86 µM
ACHN renal
  TGI: 3.93 µM
U251 CNS
  TGI: 1.63 µM
UO-31 renal
  TGI: 7.28 µM
MDA-MB-231 breast
  TGI: 6.02 µM
M14 melanoma
  TGI: 5.8 µM
SF-295 CNS
  TGI: 5.37 µM
RXF 393 renal
  TGI: 1.14 µM
HL-60(TB) leukemia
  TGI: 2.2 µM
OVCAR-4 ovarian
  TGI: 3.95 µM
SK-MEL-2 melanoma
  TGI: 7.23 µM
HOP-62 NSCLC
  TGI: 6.1 µM
RPMI-8226 leukemia
  TGI: > 25 µM
A498 renal
  TGI: 6.52 µM
K-562 leukemia
  TGI: > 25 µM
NCI-H23 lung
  TGI: 6.13 µM
SK-MEL-5 melanoma
  TGI: 4.62 µM
SW-620 colon
  TGI: > 25 µM
SF-539 CNS
  TGI: 5.26 µM
PC-3 prostate
  TGI: 5.34 µM
OVCAR-3 ovarian
  TGI: 6.79 µM
HOP-92 NSCLC
  TGI: > 16.9 µM
NCI-H460 lung
  TGI: 0.504 µM
NCI/ADR-RES ovarian
  TGI: > 14.1 µM
SNB-75 CNS
  TGI: 7.55 µM
786-0 renal
  TGI: 8.7 µM
SR leukemia
  TGI: > 7.84 µM
HT29 colon
  TGI: 0.69 µM
CAKI-1 renal
  TGI: 4.36 µM
